Experimental data: patent publication US20100056524A1, “Compound” (priority 2008, published 2010)
Where a name gives a salt, the structure may show the parent alone. Read-outs that look alike come from different tables or passages of the source.

Legend:
MELK = target: T1, MELK (Homo sapiens, UniProt Q14680); test: MELK protein kinase assay; type: biochemical; details: for remaining activity at 10 µM: 10 μM compound; for residual kinase activity MELK: 1 μm compound; for remaining activity at 1 µM: 1 μM compound
T1 construct: All protein kinases were of human origin and encoded full length proteins, unless indicated otherwise; made in house
T1 sequence (Q14680 whole entry): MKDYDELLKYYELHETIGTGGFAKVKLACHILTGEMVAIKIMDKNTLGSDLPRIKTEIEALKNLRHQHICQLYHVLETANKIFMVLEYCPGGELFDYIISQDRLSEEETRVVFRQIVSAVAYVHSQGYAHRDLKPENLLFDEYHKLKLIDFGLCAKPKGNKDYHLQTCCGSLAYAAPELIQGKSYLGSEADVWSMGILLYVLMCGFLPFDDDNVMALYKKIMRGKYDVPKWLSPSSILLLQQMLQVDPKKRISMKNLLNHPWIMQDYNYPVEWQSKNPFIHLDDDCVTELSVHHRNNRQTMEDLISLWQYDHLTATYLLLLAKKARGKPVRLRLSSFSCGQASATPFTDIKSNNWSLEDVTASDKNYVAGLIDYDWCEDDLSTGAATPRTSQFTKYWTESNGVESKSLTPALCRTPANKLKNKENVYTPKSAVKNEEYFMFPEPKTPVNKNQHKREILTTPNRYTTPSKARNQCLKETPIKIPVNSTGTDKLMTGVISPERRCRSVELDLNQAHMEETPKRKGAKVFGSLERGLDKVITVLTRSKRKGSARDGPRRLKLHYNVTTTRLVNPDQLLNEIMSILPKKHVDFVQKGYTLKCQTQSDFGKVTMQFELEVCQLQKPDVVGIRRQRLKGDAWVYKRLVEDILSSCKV
Source text: (§1) All protein kinases were of human origin and encoded full length proteins, unless indicated otherwise. They were either expressed as glutathione S-transferase (GST) fusion proteins in Escherichia Coli or as hexahistidine (His6)-tagged proteins in insect Sf21 cells. GST fusion proteins were purified by affinity chromatography on glutathione-Sepharose, and His6-tagged proteins on nickel/nitriloacetate-agarose. The procedures for expressing some of the protein kinases used herein have been detailed previously.^8,9 The following sections outline the DNA vectors synthesised and the procedures used to express and purifying protein kinases that have not been reported previously.
(§2) All assays (25.5 μl) were carried out at room temperature (21° C.) and were linear with respect to time and enzyme concentration under the conditions used. Assays were performed for 30 min using Multidrop Micro reagent dispensers (Thermo Electron Corporation, Waltham, Mass. 02454, USA) in a 96-well format. The concentration of magnesium acetate in the assays was 10 mM and the [γ-33P] ATP (800 cpm/pmol) was used at 5, 20 or 50 μM as indicated, in order to be at or below the Km for ATP for each enzyme. Protein kinases assayed at 5 μM ATP were: —ERK1, ERK8, PKBα, MARK3, Aurora C. Protein kinases assayed at 20 μM ATP were: —JNK1, PDK1, CHK1, CHK2, CDK2 and Aurora B. Protein kinases assayed at 50 μM ATP were: —MNK2, IKKepsilon and TBK1.
(§3) The assays were initiated with MgATP, stopped by addition of 5 μl of 0.5 M orthophosphoric acid and spotted on to P81 filterplates using a unifilter harvester (PerkinElmer, Boston, Mass. 02118, USA). The IC50 values of inhibitors were determined after carrying out assays at 10 different concentrations of each compound.
(§4) Unless stated otherwise, enzymes were diluted in 50 mM Tris/HCl pH 7.5, 0.1 mM EGTA, 1 mg/ml BSA, 0.1% (v/v) 2-mercaptoethanol and assayed in 50 mM Tris/HCl pH 7.5, 0.1 mM EGTA, 0.1% (v/v) 2-mercaptoethanol.

p38a MAPK = target: T2, p38a MAPK (Homo sapiens, UniProt Q16539); test: p38a MAPK protein kinase assay; type: biochemical; details: for remaining activity at 10 µM: 10 μM compound; for residual kinase activity p38a MAPK: 1 μm compound; for remaining activity at 1 µM: 1 μM compound
T2 construct: All protein kinases were of human origin and encoded full length proteins, unless indicated otherwise; made in house
T2 sequence (Q16539 whole entry): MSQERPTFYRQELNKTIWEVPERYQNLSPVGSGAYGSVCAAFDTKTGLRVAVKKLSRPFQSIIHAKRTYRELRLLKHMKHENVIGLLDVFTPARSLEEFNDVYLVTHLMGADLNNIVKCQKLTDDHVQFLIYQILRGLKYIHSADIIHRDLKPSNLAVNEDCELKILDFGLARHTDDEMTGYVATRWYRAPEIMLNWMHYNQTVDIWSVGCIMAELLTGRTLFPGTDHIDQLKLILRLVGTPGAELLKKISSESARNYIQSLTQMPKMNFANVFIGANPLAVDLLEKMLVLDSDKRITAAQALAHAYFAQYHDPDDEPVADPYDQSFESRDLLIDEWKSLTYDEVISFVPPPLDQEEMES
Source text: as §1, §2, §3, §4

PDK1 = target: T3, PDK1 (Homo sapiens, UniProt O15530); test: PDK1 protein kinase assay; type: biochemical; details: for remaining activity at 10 µM: 10 μM compound; for residual kinase activity PDK1: 1 μm compound; for remaining activity at 1 µM: 1 μM compound
T3 construct: 3-phosphoinositide-dependent protein kinase-1 [52-556]; His6; made in house; host or cells: insect Sf21 cells
T3 sequence (O15530 52-556): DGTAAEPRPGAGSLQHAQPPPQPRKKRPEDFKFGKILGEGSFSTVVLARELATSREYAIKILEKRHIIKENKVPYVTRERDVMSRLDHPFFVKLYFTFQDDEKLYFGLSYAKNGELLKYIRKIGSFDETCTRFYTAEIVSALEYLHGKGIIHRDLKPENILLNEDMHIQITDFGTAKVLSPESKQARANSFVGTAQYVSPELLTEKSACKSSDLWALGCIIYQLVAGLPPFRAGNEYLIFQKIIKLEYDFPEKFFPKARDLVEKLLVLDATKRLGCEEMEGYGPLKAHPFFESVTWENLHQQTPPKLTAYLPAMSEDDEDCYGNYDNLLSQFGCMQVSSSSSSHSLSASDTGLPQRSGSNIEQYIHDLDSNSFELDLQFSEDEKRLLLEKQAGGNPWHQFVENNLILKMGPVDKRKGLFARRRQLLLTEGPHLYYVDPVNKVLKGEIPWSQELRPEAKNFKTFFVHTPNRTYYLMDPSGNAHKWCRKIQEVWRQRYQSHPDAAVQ
Source text: as §1
The following kinases were expressed in Sf21 cells: Aurora B and Aurora C, extra-cellular signal-regulated kinase 8 (ERK8), microtubule affinity regulating kinase 3 (MARK3), protein kinase Bα[118-480][S473D], protein kinase Bβ (PKBβ[120-481][S474D], 3-phosphoinositide-dependent protein kinase-1 [52-556]
as §2, §3, §4

CSK = target: T4, CSK (Homo sapiens, UniProt P41240); test: CSK protein kinase assay; type: biochemical; details: for remaining activity at 10 µM: 10 μM compound; for residual kinase activity CSK: 1 μm compound; for remaining activity at 1 µM: 1 μM compound
T4 construct: All protein kinases were of human origin and encoded full length proteins, unless indicated otherwise; made in house
T4 sequence (P41240 whole entry): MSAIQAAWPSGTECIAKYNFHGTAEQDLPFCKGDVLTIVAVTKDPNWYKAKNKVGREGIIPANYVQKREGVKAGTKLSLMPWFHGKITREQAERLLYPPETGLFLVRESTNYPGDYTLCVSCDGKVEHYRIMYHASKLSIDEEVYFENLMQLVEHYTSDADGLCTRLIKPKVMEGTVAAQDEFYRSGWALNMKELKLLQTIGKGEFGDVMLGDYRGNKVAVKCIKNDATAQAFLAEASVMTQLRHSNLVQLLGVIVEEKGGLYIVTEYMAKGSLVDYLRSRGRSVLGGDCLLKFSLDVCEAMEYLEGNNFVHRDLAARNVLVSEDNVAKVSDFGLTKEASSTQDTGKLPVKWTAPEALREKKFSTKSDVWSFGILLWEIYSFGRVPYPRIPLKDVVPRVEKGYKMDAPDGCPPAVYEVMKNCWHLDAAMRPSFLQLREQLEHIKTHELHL
Source text: as §1, §2, §3, §4

IRR = IRR protein kinase assay; type: biochemical, human; details: for residual kinase activity: IRR
Source text: as §1, §2, §3, §4

CHK1 = target: T5, CHK1 (Homo sapiens, UniProt O14757); test: CHK1 protein kinase assay; type: biochemical; details: for remaining activity at 10 µM: 10 μM compound; for residual kinase activity CHK1: 1 μm compound; for remaining activity at 1 µM: 1 μM compound
T5 construct: All protein kinases were of human origin and encoded full length proteins, unless indicated otherwise; made in house
T5 sequence (O14757 1-476): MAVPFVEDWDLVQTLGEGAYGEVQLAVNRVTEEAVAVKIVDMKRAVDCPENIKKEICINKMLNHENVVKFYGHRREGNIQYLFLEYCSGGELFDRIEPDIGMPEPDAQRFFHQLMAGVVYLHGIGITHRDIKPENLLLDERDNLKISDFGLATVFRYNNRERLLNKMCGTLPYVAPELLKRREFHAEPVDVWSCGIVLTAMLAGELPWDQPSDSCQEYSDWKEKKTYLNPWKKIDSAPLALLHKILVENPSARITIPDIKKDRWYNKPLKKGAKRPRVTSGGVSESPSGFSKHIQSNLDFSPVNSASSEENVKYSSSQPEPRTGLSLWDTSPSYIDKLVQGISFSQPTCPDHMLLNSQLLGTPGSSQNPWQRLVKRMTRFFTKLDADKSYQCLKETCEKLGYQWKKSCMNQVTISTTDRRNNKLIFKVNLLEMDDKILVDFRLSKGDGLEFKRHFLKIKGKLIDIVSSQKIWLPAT
Source text: as §1, §2, §3, §4

YES1 = target: T6, YES1 (Homo sapiens, UniProt P07947); test: YES1 protein kinase assay; type: biochemical; details: for remaining activity at 10 µM: 10 μM compound; for residual kinase activity YES1: 1 μm compound; for remaining activity at 1 µM: 1 μM compound
T6 construct: All protein kinases were of human origin and encoded full length proteins, unless indicated otherwise; made in house
T6 sequence (P07947 whole entry): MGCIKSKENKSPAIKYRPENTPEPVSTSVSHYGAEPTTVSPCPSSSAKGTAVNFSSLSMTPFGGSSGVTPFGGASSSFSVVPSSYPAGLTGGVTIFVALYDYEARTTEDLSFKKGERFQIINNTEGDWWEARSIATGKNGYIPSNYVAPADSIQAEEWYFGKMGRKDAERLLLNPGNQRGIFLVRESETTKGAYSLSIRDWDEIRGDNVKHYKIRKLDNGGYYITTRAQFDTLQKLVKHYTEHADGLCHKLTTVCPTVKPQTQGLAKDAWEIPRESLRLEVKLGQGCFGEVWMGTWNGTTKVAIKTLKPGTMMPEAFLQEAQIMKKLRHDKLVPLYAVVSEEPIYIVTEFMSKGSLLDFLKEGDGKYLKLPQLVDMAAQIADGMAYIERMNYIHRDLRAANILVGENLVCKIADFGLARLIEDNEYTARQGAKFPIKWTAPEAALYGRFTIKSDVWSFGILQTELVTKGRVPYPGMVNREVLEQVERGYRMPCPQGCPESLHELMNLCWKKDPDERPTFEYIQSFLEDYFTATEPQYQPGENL
Source text: as §1, §2, §3, §4

[1] = read-out: residual kinase activity MELK
[2] = read-out: residual kinase activity p38a MAPK
[3] = read-out: residual kinase activity PDK1
[4] = read-out: residual kinase activity CSK
[5] = read-out: residual kinase activity CHK1
[6] = read-out: residual kinase activity YES1
[7] = MELK, read-out: residual kinase activity
[8] = p38a MAPK, read-out: residual kinase activity
[9] = PDK1, 20 μM ATP, read-out: residual kinase activity
[10] = CSK, read-out: residual kinase activity
[11] = CHK1, 20 μM ATP, read-out: residual kinase activity
[12] = YES1, read-out: residual kinase activity

Row | Compound | remaining activity at 10 µM (MELK; [1]) [%] | residual kinase activity MELK (MELK) [%] | remaining activity at 10 µM (p38a MAPK; [2]) [%] | residual kinase activity p38a MAPK (p38a MAPK) [%] | remaining activity at 10 µM (PDK1; [3]) [%] | residual kinase activity PDK1 (PDK1) [%] | remaining activity at 1 µM (MELK; [7]) [%] | remaining activity at 10 µM (MELK; [7]) [%] | remaining activity at 1 µM (p38a MAPK; [8]) [%] | remaining activity at 10 µM (p38a MAPK; [8]) [%] | remaining activity at 1 µM (PDK1; [9]) [%] | remaining activity at 10 µM (PDK1; [9]) [%] | remaining activity at 1 µM (CSK; [10]) [%] | remaining activity at 10 µM (CSK; [10]) [%] | residual kinase activity (IRR; 1 μM compound) [%] | residual kinase activity (IRR; 10 μM compound) [%] | remaining activity at 1 µM (CHK1; [11]) [%] | remaining activity at 10 µM (CHK1; [11]) [%] | remaining activity at 1 µM (YES1; [12]) [%] | remaining activity at 10 µM (YES1; [12]) [%] | other results
1 | O=C(NCCCNc1nc(Nc2cccc(F)c2)ncc1Br)C1CCC1 [Compound A, cyclobutanecarboxylic acid {3-[5-bromo-2-(3-fluoro-phenylamino)-pyrimidin-4-ylamino]-propyl}-amide, reference compound] | 14 | 15 | 78 | 99 | 1 | 6 |  |  |  |  |  |  |  |  |  |  |  |  |  |  | remaining activity at 10 µM (CSK; [4]): 51%; residual kinase activity CSK (CSK): 86%; residual kinase activity IRR (IRR; 10 μM compound): 15%; residual kinase activity IRR (IRR; 1 μm compound): 32%; remaining activity at 10 µM (CHK1; [5]): 0%; residual kinase activity CHK1 (CHK1): 9%; remaining activity at 10 µM (YES1; [6]): 8%; residual kinase activity YES1 (YES1): 36%
2 | O=C(NCCCNc1nc(Nc2cccc(F)c2)ncc1C1CC1)C1CCC1 [Example 23, Cyclobutanecarboxylic acid {3-[5-cyclopropyl-2-(3-fluoro-phenylamino)-pyrimidin-4-ylamino]-propyl}-amide] | 3 | 23 | 86 | 72 | 10 | 44 | 23 | 3 | 72 | 86 | 44 | 10 | 77 | 69 | 44 | 17 | 51 | 14 | 77 | 22 | remaining activity at 10 µM (CSK; [4]): 69%; residual kinase activity CSK (CSK): 77%; residual kinase activity IRR (IRR; 10 μM compound): 17%; residual kinase activity IRR (IRR; 1 μm compound): 44%; remaining activity at 10 µM (CHK1; [5]): 14%; residual kinase activity CHK1 (CHK1): 51%; remaining activity at 10 µM (YES1; [6]): 22%; residual kinase activity YES1 (YES1): 77%
3 | O=C(NCCCNc1nc(Nc2cccc(N3CCCC3=O)c2)ncc1C1CC1)c1cccs1 [Example 47, Thiophene-2-carboxylic acid (3-{5-cyclopropyl-2-[3-(2-oxo-pyrrolidin-1-yl)-phenylamino]-pyrimidin-4-ylamino}-propyl)-amide. Hydrochloride salt] |  |  |  |  |  |  | 14 | 27 | 105 | 100 | 9 | 2 | 77 | 71 | 64 | 25 | 70 | 30 | 94 | 74 | 
4 | O=C(NCCCNc1nc(Nc2cccnc2)ncc1C1CC1)c1cccs1 [Example 50, Thiophene-2-carboxylic acid {3-[5-cyclopropyl-2-(pyridin-3-ylamino)-pyrimidin-4-ylamino]-propyl}-amide] |  |  |  |  |  |  | 29 | 17 | 106 | 90 | 22 | 4 | 79 | 60 | 39 | 17 | 65 | 21 | 82 | 29 | 
